{"source": "patent US20200323811A1", "about": "“INTRANASAL PHARMACEUTICAL COMPOSITION COMPRISING ANTICANCER DRUGCONTAINING NANOPARTICLES FOR TREATING BRAIN DISEASES” (INDUSTRY-UNIVERSITY COOPERATION FOUNDATION HANYANG …, priority 2016, published 2020)", "key": {"[1]": {"tested_on": "U87MG glioma cells", "assay": "Cell cycle (DNA content, PI) analysis", "assay_type": "cell-based, human", "details": "24 hours", "experimental": "(§1) The rat (C6) and human (U87MG) glioblastoma cells used in this experiment were obtained from ATCC (Rockville, Md.), and cultured in Dulbecco's Modified Eagle's Medium (DMEM) containing 10% fetal bovine serum, penicillin (100 IU/mL) and streptomycin (100 μg/mL) at 37° C. in a 5% CO2 incubator. For all in vitro experiments, the cells were seeded in a 12-well plate at a density of 1×10^5 cells/well."}, "[2]": {"tested_on": "C6-Luc glioblastoma", "assay": "Intracranial C6-Luc orthotopic glioblastoma model, intranasal inoculation", "assay_type": "in vivo, Sprague-Dawley rats", "experimental": "The therapeutic efficacy of intranasally-delivered PTX-loaded NPs was evaluated in an intracranial C6-Luc orthotropic model. […] Therefore, as a PTX solvent, DMSO was used. In addition, to minimize DMSO-associated cytotoxicity, the PTX-loaded NPs were dissolved in PBS. The intranasal inoculation started at day 4 after tumor administration and was performed daily for a total of three times.\n(§2) Specifically, intracranial tumor models were established from 6-week-old male Sprague-Dawley rats. The anesthetized rats were placed in a stereotaxic frame, and the skull was gently exposed to spot the bregma. The monitoring points for the bregma were as follows: anteroposterior, 0 mm; lateral, 2.0 mm; and ventral, 4.0 mm. A fine burr hole (0.7 mm) was created in the skull without disrupting the dura using a microsurgical drill. A total of 2×10^5/10 μl C6-Fluc cells were injected using a 26-gauge Hamilton microsyringe (80330; Reno, Nev., USA) at a speed of 0.9 μl/min. To generate a human glioblastoma model, 1×10^5/[…] of U87MG-Fluc cells were inoculated into immunodeficient nude mice by the same method. After the operation, the skin was sutured.\nIn vivo and ex vivo bioluminescence imaging was performed. For in vivo bioluminescence imaging, 150 mg/kg of D-luciferin (Caliper, Hopkinton, Mass.) was intraperitoneally injected into anesthetized animals. The live images were taken 15 minutes after the injection of D-luciferin by the IVIS Lumina caliper series (Life Technologies, Carlsbad, Calif.). […]\nFor Nissl staining, paraffin-embedded brain sections were deparaffinized, rehydrated, and then subjected to treatment with a 0.1% crystal violet solution according to a standard protocol. […] The cancer volume was calculated using ImageJ software as described above. […]\nTo investigate apoptosis in the de-paraffinized and hydrated brain sections, the TUNEL assay was performed using an in situ apoptosis detection kit (Millipore) according to the manufacturer's instruction. […] Fluorescent signals of the cells were measured by taking images using a fluorescence microscope (Leica, Wetzlar, Germany). […]"}, "[3]": {"tested_on": "C-6 glioma cells", "assay": "Viability/apoptosis (calcein-AM / EthD-1) analysis", "assay_type": "cell-based, rat", "details": "24 hours", "experimental": "as §1\nAn image was captured using a fluorescence microscope (Leica, Wetzlar, Germany). A percentage of live or dead cells was calculated using ImageJ software, developed by the National Institute of Health (NIH)."}, "[4]": {"assay": "In vivo toxicity by body weight of inoculated animals", "set-up": "species or system rat", "details": "glioblastoma rats, 2 mg/kg intranasal", "experimental": "Further, the in vivo toxicity of NPs was evaluated by measuring a body weight of the inoculated animal. The change in body weight is reliable indicator for assessing the in vivo toxicity of a delivered drug. […] However, an insignificant change in body weight was shown in all animals due to cancer mass over time after tumor implantation (FIG. 8)."}, "[5]": {"tested_on": "C6 glioblastoma cells", "assay": "Cell cycle (DNA content, PI) analysis", "assay_type": "cell-based, rat", "details": "10 μM PTX equivalent, 24 hours", "experimental": "as §1\nAnd then, the cells were collected, and fixed with 70% ethanol at 4° C. for 2 hours. After incubation, the cells were washed, and additionally incubated with a DNase-free RNase (1 mg/mL) and 0.02 mg/mL of propidium iodide (PI). A cell cycle profile was studied using a flow cytometer (BD FACS Calibur™), and analyzed using FlowJo software."}, "[6]": {"tested_on": "U87MG-Fluc glioblastoma", "assay": "Human glioblastoma (U87MG-Fluc) model, intranasal inoculation", "assay_type": "in vivo, immunodeficient nude mice", "details": "1 mg/kg intranasal, three inoculations", "experimental": "as §2, with “A total of 2×10^5/10 μl C6-Fluc cells were injected using a 26-gauge Hamilton microsyringe (80330;” left out, “sutured. […] In vivo and ex vivo bioluminescence imaging was performed. For in vivo bioluminescence imaging, 150 mg/kg of D-luciferin (Caliper, Hopkinton, Mass.) was intraperitoneally injected into anesthetized animals. The live images were taken 15 minutes after the injection of D-luciferin by the IVIS Lumina caliper series (Life Technologies, Carlsbad, Calif.). To evaluate ex vivo bioluminescence, the excised brain tissue was incubated with a D-luciferin substrate for 15 minutes, followed by imaging as described above. […] The cancer volume was calculated using ImageJ software as described above.” for “sutured.”"}, "[7]": {"tested_on": "C6-glioma cells", "assay": "TUNEL assay and Hoechst staining in cultured cells", "assay_type": "cell-based, rat", "experimental": "as §1"}, "[8]": {"tested_on": "rat glioma cells", "assay": "Annexin V / 7-AAD apoptosis flow cytometry", "assay_type": "cell-based", "details": "24 hours", "experimental": "as §1"}}}
{"smiles": "CC(=O)O[C@H]1C(=O)[C@@]2(C)[C@H]([C@H](OC(=O)c3ccccc3)[C@]3(O)C[C@H](OC(=O)[C@H](O)[C@@H](NC(=O)c4ccccc4)c4ccccc4)C(C)=C1C3(C)C)[C@]1(OC(C)=O)CO[C@@H]1C[C@@H]2O", "note": "[PTX, Paclitaxel]", "values": [{"measurement": "arrested population at the G2-M phase compared with C6 cells", "setting": "[1]", "value": "slightly higher arrested population at the G2-M phase"}, {"measurement": "tumor volume (Nissl staining)", "setting": "[2]; 2 mg/kg PTX equivalent intranasal, PBS 98.4", "value": 90.1, "unit": "mm^3"}, {"measurement": "tumor progression (in vivo bioluminescence imaging)", "setting": "[2]; 2 mg/kg PTX intranasal, three daily inoculations from day 4, up to day 14", "value": "relatively identical to the saline-treated group"}, {"measurement": "increase in in vivo bioluminescence signals", "setting": "[2]; day 14, 2 mg/kg intranasal", "value": "1.0×10^8 fold"}, {"measurement": "dead cells", "setting": "[3]; 0.01 μM", "value": 8.3, "unit": "%"}, {"measurement": "dead cells", "setting": "[3]; 0.1 μM", "value": 23.1, "unit": "%"}, {"measurement": "dead cells", "setting": "[3]; 1 μM", "value": 31.8, "unit": "%"}, {"measurement": "dead cells", "setting": "[3]; 10 μM", "value": 49.2, "unit": "%"}, {"measurement": "dead cells", "setting": "[3]; 50 μM", "value": 63.8, "unit": "%"}, {"measurement": "change in body weight", "setting": "[4]", "value": "significant effect on body weight loss"}, {"measurement": "cells at the G1 phase", "setting": "[5]", "value": 9, "unit": "%"}, {"measurement": "cells at the G2-M phase", "setting": "[5]; non-treated 29%", "value": 83, "unit": "%"}, {"measurement": "tumor growth / therapeutic effect compared with saline (BLI)", "setting": "[6]", "value": "did not show any therapeutic effect"}, {"measurement": "nuclear morphology (Hoechst staining)", "setting": "[7]; compared with non-treated glioma cells", "value": "severe formation of DNA fragmentation or segmentation or condensed nuclei"}, {"measurement": "number of apoptotic cells stained with TUNEL", "setting": "[7]; equivalent amounts of PTX", "value": "concentration-dependently increased"}, {"measurement": "number of TUNEL-positive cells", "setting": "[7]; fifth tested micromolar concentration (50 μM)", "value": "~236.1"}, {"measurement": "number of TUNEL-positive cells", "setting": "[7]; first tested micromolar concentration (0.01 μM)", "value": "approximately 77"}, {"measurement": "number of TUNEL-positive cells", "setting": "[7]; fourth tested micromolar concentration (10 μM)", "value": "~198.6"}, {"measurement": "number of TUNEL-positive cells", "setting": "[7]; second tested micromolar concentration (0.1 μM)", "value": "~97.5"}, {"measurement": "number of TUNEL-positive cells", "setting": "[7]; third tested micromolar concentration (1 μM)", "value": "~136.6"}, {"measurement": "annexin V-positive cells", "setting": "[8]; 1 μM", "value": 30.1, "unit": "%"}, {"measurement": "annexin V-positive cells", "setting": "[8]; 10 μM", "value": 33.1, "unit": "%"}, {"measurement": "annexin V-positive cells", "setting": "[8]; 50 μM", "value": 34.2, "unit": "%"}, {"measurement": "number of annexin V and 7-AAD-positive cells", "setting": "[8]; various concentrations", "value": "concentration-dependently increased"}]}
